Measured values from patent publication US11883410B2, “Preventative and therapeutic agents for sarcopenia” (NATIONAL UNIVERSITY CORPORATION TOKYO UNIVERSITY OF …, priority 2018, dated 2024).
Read-outs that look alike come from different tables or passages of the source.

Key:
Type in all cases: in vivo
[1] = test system: tail-suspended mice (disuse muscle atrophy of lower limbs); assay: Evaluation of inhibition of muscular atrophy in tail-suspended mice, Part 2; conditions: feed containing 0.01 mass % for 2 weeks during tail-suspension; vs control tail-suspension group
Description: (§1) Eight-week-old C57/BL6J male mice (Japan SLC, Inc., Shizuoka, Japan) were subjected to the tail-suspension to obtain mice model with disuse muscle atrophy of their lower limbs.
While the tail-suspension was performed, feed containing 0.01 mass % compound (1), compound (2), compound (3), compound (4), or compound (5) was fed for 2 weeks (compound (1) administration group, compound (2) administration group, compound (3) administration group, compound (4) administration group, and compound (5) administration group). […] The number of tests was n=8 in each group.
(§2) Two weeks after the initiation of the experiment (the initiation of the tail-suspension and the initiation of feeding with the feed that contained the compounds), micro-CT imaging of the mouse hind limbs was performed. The muscle volume at the periphery of the tibia (triceps surae muscle) was measured using 3D volumetric analysis software. Micro-CT imaging was performed using a microfocus X-ray CT system (micro-CT: SMX-90T, manufactured by Shimadzu Corporation).
The midpoint of the fibula in the lower limb of each mouse was determined using 3D images created from the micro-CT images, and the volume of total muscle mass at the measurement area starting from the midpoint was measured. […] The rate of increase was calculated according to the following: (compound administration group−control tail-suspension group)/(normal breeding group−control tail-suspension group)×100.
Furthermore, the gastrocnemius muscle was collected from the mouse hind limb after the tail-suspension, and the wet mass (muscle mass) was measured. […] The rate of increase was calculated according to the following: (compound administration group−control tail-suspension group)/(normal breeding group−control tail-suspension group)×100.
(§3) A Student's t-test was used for the significant difference test.

[2] = test system: tail-suspended mice (disuse muscle atrophy of lower limbs); assay: Inhibition of muscular atrophy in tail-suspended mice, Part 3 (feeding started one week after tail-suspension); conditions: feed containing 0.3 mass % for 2 weeks starting one week after tail-suspension; vs control tail-suspension group
Description: as §1
One week after tail-suspension, feed that contained 0.3 mass % compound (1) was fed for 2 weeks (compound (1) administration group). […] The number of tests was n=8 in each group.
Micro-CT imaging of the mouse hind limbs was performed before tail suspension, 1 week after suspension, 2 weeks after suspension, and 3 weeks after suspension. The muscle volume at the periphery of the tibia (triceps surae muscle) was measured using 3D volumetric analysis software. Micro-CT imaging was performed using a microfocus X-ray CT system (micro-CT: SMX-90T, manufactured by Shimadzu Corporation).
The midpoint of the fibula in the lower limb of each mouse was determined using 3D images created from the micro-CT images, and the volume of total muscle mass at the measurement area starting from the midpoint was measured.
Furthermore, the gastrocnemius muscle was collected from the mouse hind limb three weeks after the tail-suspension, and the wet mass (muscle mass) was measured.
as §3

[3] = test system: tail-suspended mice (disuse muscle atrophy of lower limbs); assay: Evaluation of inhibition of muscular atrophy in tail-suspended mice, Part 1; conditions: feed containing 0.01, 0.1 or 0.3 mass % for 2 weeks during tail-suspension; vs control tail-suspension group
Description: Eight-week-old C57/BL6J male mice (Japan SLC, Inc., Shizuoka, Japan) were subjected to tail-suspension to obtain mice model with disuse muscle atrophy of their lower limbs.
The tail-suspension was performed according to the description in Skelet Muscle. 2015; 5:34. […] Tail-suspension is known to cause skeletal muscle mass loss and muscle strength loss in the hind limbs, whereby an experimental model with disuse muscle atrophy, which is one type of sarcopenia, can be produced.
During the period of tail-suspension, feed containing 0.01, 0.1, or 0.3 mass % compound (1) was fed for 2 weeks (compound (1) administration groups). […] The number of tests was n=8 in each group.
as §2, with “feeding of” for “feeding with”, “the compound),” for “the compounds),”, “micro-CT (micro-computed tomography)” for “micro-CT”, “(micro-CT: SMX-90T” for “(micro-CT: SMX-90T,”
The midpoint of the fibula in the lower limb of each mouse was determined using 3D images created from the micro-CT images, and the volume of total muscle mass at the measurement area starting from the midpoint was measured. […]

[4] = Evaluation of blood kinetics of compound in mice (mixed feed); conditions: for Cmax / AUC(0-t): male, mouse, po, C57BL/6 mice, plasma, LC/MS; for AUC(0-t): read-out: AUC0-24 h
Description: Mixed feed that contained 0.01, 0.1, or 0.3 mass % compound (1) were fed to 7-week-old C57BL/6 mice (male, Charles River Japan Ltd., weight: 20.7-23.7 g) for 13 days.
Blood was collected from the face by using an animal lancet at 10 a.m., 1, 5, and 9 p.m. on day 12 and 10 a.m. on day 13.
About 75 μL of blood was collected into a heparin-coated hematocrit tube. The concentration of the compound in the plasma after centrifugation was measured using liquid chromatography-mass spectrometry (LC/MS).
Since a mouse with a body weight of about 20 g consumes about 4 g of the feed per day (spilling of food is not assumed), the daily intake of the compound is estimated to be 0.4 mg (0.01 mass % mixed feed), 4 mg (0.1 mass % mixed feed), or 12 mg (0.3 mass % mixed feed). The body weight conversion values were 20 mg/kg (0.01 mass % mixed feed), 200 mg/kg (0.1 mass % mixed feed), and 600 mg/kg (0.3 mass % mixed feed).

[5] = 20 mg/kg, 0.01% mixed feed for 13 days
[6] = 200 mg/kg, 0.1% mixed feed for 13 days
[7] = 600 mg/kg, 0.3% mixed feed for 13 days

| Structure (SMILES) | muscle volume at the periphery of the tibia (triceps surae muscle), micro-CT (FIG. 6, FIG. 7) [1] | wet mass (muscle mass) of gastrocnemius muscle (FIG. 8, FIG. 9) [1] | muscle volume change at the periphery of the tibia (triceps surae muscle), micro-CT (FIG. 11) [2] | wet mass (muscle mass) of gastrocnemius muscle three weeks after tail-suspension (FIG. 12) [2] | muscle volume at the periphery of the tibia (triceps surae muscle), micro-CT (FIG. 2) [3] | wet mass (muscle mass) of gastrocnemius, soleus, tibialis anterior and extensor digitorum longus muscles (FIG. 3) [3] | Cmax [4, 5] [nM] | AUC(0-t) [4, 5] [µM·h] | Cmax [4, 6] [nM] | AUC(0-t) [4, 6] [µM·h] | Cmax [4, 7] [nM] | AUC(0-t) [4, 7] [µM·h] | compound concentration in blood ([4]; mixed feed in the range of 0.01 mass % to 0.3 mass %) |
| --- | --- | --- | --- | --- | --- | --- | --- | --- | --- | --- | --- | --- | --- |
| Cn1cccc1C(=O)N1CCN(C(=O)NC2CCN(c3ccc(CCn4ccnn4)cc3)CC2)CC1 [compound (5), 4-((1-methylpyrrol-2-yl)-carbonyl)-N-(1-(4-(2-(1H-1,2,3-triazol-1-yl)-ethyl)-phenyl)-piperidin-4-yl)-1-piperazine carboxamide] | significant suppression of muscle mass loss | significant suppression of the decrease in the muscle amount |  |  |  |  |  |  |  |  |  |  |  |
| O=C(Nc1ccc(N2CCC(CCn3cncn3)C2)cc1)N1CCC(=Cc2ccccn2)CC1 (stereo not shown) [compound (4), N-(4-(3-(2-(1H-1,2,4-triazol-1-yl)ethyl)pyrrolidin-1-yl)phenyl)-4-(pyridin-2-ylmethylene)piperidine-1-carboxamide] | significant suppression of muscle mass loss | significant suppression of the decrease in the muscle amount |  |  |  |  |  |  |  |  |  |  |  |
| Cn1cccc1C(=O)N1CCN(C(=O)Nc2ccc(N3CCC(C(=O)N4CCOCC4)CC3)cc2)CC1 [compound (1), 4-{(1-methyl-1H-pyrrol-2-yl)carbonyl}-N-[4-{4-(4-morpholinylcarbonyl)-1-piperidinyl}phenyl]-1-piperazine carboxamide] | significant suppression of muscle mass loss | significant suppression of the decrease in the muscle amount | significantly higher muscle amount at week 2 and week 3 | significant therapeutic effect on the muscle amount | significant suppression of muscle mass loss | a tendency to suppress a decrease in the muscle amount in all of the hind limb muscles | 230 | 4.29 | 2210 | 38.3 | 6410 | 104 | dose-dependent increase in the compound concentration in blood |
| c1ccc(C(OC2CCN(CCCc3nnn[nH]3)CC2)c2ccccc2)cc1 [compound (2), 4-(diphenylmethoxy)-1-[3-(2H-tetrazol-5-yl)propyl]piperidine] | did not show significant suppression of muscle mass loss although a tendency toward suppression was observed | did not show a significant difference although a tendency toward suppression of the decrease in the muscle amount was observed |  |  |  |  |  |  |  |  |  |  |  |
